Article PMC7156458, “Synthetic biology based construction of biological activity-related library of fungal decalin-containing diterpenoid pyrones” (Nature Communications, 2020)
Values joined by “and” are separate entries in the source; they are usually repeats but may differ in a detail not shown here. Equal values may be shown once. Read-outs that look alike come from different tables or passages of the source.

Key:
MCF-7 cells = test: mammosphere formation assay; assay type: cell-based, human; conditions: MCF-7, 5 μM, 7 days
[1] = cytotoxicity in Drosophila DL1 cells; assay type: cell-based; conditions: Drosophila, DL1 cells (embryonic macrophage-derived), DL1 cells
Procedure: (§1) We screened the DDPs on the Drosophila assay system for cytotoxicity, inhibitory activity of innate immune signalling and insecticidal activity. The cytotoxicity of the DDPs was evaluated using two cell lines, embryonic macrophage-derived DL1 cells[58]–[60] and larval blood cell-derived l(2)mbn cells, and their IC50 values are listed in Supplementary Table 23.

DL1 cells = test: cytotoxicity in Drosophila DL1 cells; assay type: cell-based; conditions: DL1 cells; for IC50: Drosophila melanogaster, cytotoxicity
Procedure: as §1

[2] = cytotoxicity in Drosophila l(2)mbn cells; assay type: cell-based; conditions: Drosophila, l(2)mbn cells (larval blood cell-derived)
Procedure: as §1

l(2)mbn cells = test: cytotoxicity in Drosophila l(2)mbn cells; assay type: cell-based; conditions: for Luminescence Raw1: replicate 1; for Luminescence Raw2: replicate 2; for IC50: Drosophila melanogaster, cytotoxicity
Procedure: as §1

[3] = tested on: human immunodeficiency virus-1 (HIV-1); test: anti-HIV MAGI assay; assay type: cell-based; conditions: Human immunodeficiency virus 1, MAGI, anti-HIV; average of numeric determinations; read-out: Avg. EC50
Excerpt: (§2) We examined the inhibitory activities of DDPs against various species of bacteria (both gram-negative and gram-positive bacteria), fungi and viruses. […] In contrast, preliminary screening of the DDPs for anti-viral agents with hepatitis B virus (HBV), measles virus (MV), Epstein-Barr virus (EBV), herpes simplex virus (HSV) and human immunodeficiency virus-1 (HIV-1) indicated their selective inhibition of HIV.

MAGI cells = test: cytotoxicity in the anti-HIV assay (CC50); assay type: cell-based; conditions: single determinations
[4] = tested on: hepatitis B virus (HBV), measles virus (MV), Epstein-Barr virus (EBV), herpes simplex virus (HSV); test: preliminary anti-viral screening (other viruses); assay type: cell-based
Excerpt: as §2

[5] = replicate 1, relative to DMSO 1%, read-out: % viability, viability 1
[6] = replicate 2, relative to DMSO 1%, read-out: % viability, viability 2
[7] = average of two replicates, read-out: IC50 Average
[8] = replicate 1, read-out: IC50 (1)
[9] = replicate 2, read-out: IC50 (2)

For `C=C1CC[C@@H]2[C@](C)(CC[C@H]3O[C@H](C=C(C)C)C[C@@]23C)[C@@H]1Cc1c(OC)oc(CO)c(C)c1=O` [Compound 20], the “MFE (%) ave” value (MCF-7 cells; mean of 3, control 0.87) was 0.77%, the “MFE (control = 1) ave” value (MCF-7 cells; relative to control = 1) was 0.89 and the “MFE (%)” value (MCF-7 cells; single replicates) was 0.76% and 0.80%. The viability at 0.04 µM [1, 5] was 191%, the viability at 0.04 µM [1, 6] was 209% and the viability at 0.2 µM [1, 5] was 171%. For the same compound, the viability at 0.2 µM [1, 6] was 166%, the viability at 1 µM [1, 5] was 20.6% and the viability at 1 µM [1, 6] was 19.9%. For the same compound, the viability at 4 µM [1, 5] was 20.4%, the viability at 4 µM [1, 6] was 21.2% and the viability at 10 µM [1, 5] was 20.5%. The viability at 10 µM [1, 6] was 19.2%, the viability at 20 µM [1, 5] was 20.5% and the viability at 20 µM [1, 6] was 24.6%. The “Luminescence Raw1” value (DL1 cells; 0.04 µM, replicate 1) was 2619350, the “Luminescence Raw2” value (DL1 cells; 0.04 µM, replicate 2) was 2864984 and the “Luminescence Raw1” value (DL1 cells; 0.2 µM, replicate 1) was 2345231. The “Luminescence Raw2” value (DL1 cells; 0.2 µM, replicate 2) was 2278506, the “Luminescence Raw1” value (DL1 cells; 1 µM, replicate 1) was 282109 and the “Luminescence Raw2” value (DL1 cells; 1 µM, replicate 2) was 273095. The “Luminescence Raw1” value (DL1 cells; 4 µM, replicate 1) was 279585, the “Luminescence Raw2” value (DL1 cells; 4 µM, replicate 2) was 290402 and the “Luminescence Raw1” value (DL1 cells; 10 µM, replicate 1) was 280667. For the same compound, the “Luminescence Raw2” value (DL1 cells; 10 µM, replicate 2) was 263720, the “Luminescence Raw1” value (DL1 cells; 20 µM, replicate 1) was 281027 and the “Luminescence Raw2” value (DL1 cells; 20 µM, replicate 2) was 336916. The IC50 (DL1 cells; [7]) was 0.269 µM, the IC50 (DL1 cells; average±SEM, read-out: IC50) was 0.27 ± 0.03 µM and the IC50 (DL1 cells; [8]) was 0.299 µM. The IC50 (DL1 cells; [9]) was 0.238 µM, the viability at 0.04 µM [2, 5] was 95.7% and the viability at 0.04 µM [2, 6] was 102%. The viability at 0.2 µM [2, 5] was 106%, the viability at 0.2 µM [2, 6] was 112% and the viability at 1 µM [2, 5] was 71.1%. For the same compound, the viability at 1 µM [2, 6] was 80.9%, the viability at 4 µM [2, 5] was 1.55% and the viability at 4 µM [2, 6] was 2.17%. It also gave a viability at 10 µM [2, 5] of 1.88%, a viability at 10 µM [2, 6] of 1.76% and a viability at 20 µM [2, 5] of 1.4%. The viability at 20 µM [2, 6] was 2.05%, the “Luminescence Raw1” value (l(2)mbn cells; 0.04 µM) was 6010744 and the “Luminescence Raw2” value (l(2)mbn cells; 0.04 µM) was 6416731. For the same compound, the “Luminescence Raw1” value (l(2)mbn cells; 0.2 µM) was 6637959, the “Luminescence Raw2” value (l(2)mbn cells; 0.2 µM) was 7047592 and the “Luminescence Raw1” value (l(2)mbn cells; 1 µM) was 4464964. For the same compound, the “Luminescence Raw2” value (l(2)mbn cells; 1 µM) was 5080853, the “Luminescence Raw1” value (l(2)mbn cells; 4 µM) was 97218 and the “Luminescence Raw2” value (l(2)mbn cells; 4 µM) was 136159. For the same compound, the “Luminescence Raw1” value (l(2)mbn cells; 10 µM) was 118130, the “Luminescence Raw2” value (l(2)mbn cells; 10 µM) was 110559 and the “Luminescence Raw1” value (l(2)mbn cells; 20 µM) was 87844. The “Luminescence Raw2” value (l(2)mbn cells; 20 µM) was 128947, the IC50 (l(2)mbn cells; [7]) was 1.45 µM and the IC50 (l(2)mbn cells; average±SEM, read-out: IC50) was 1.45 ± 0.13 µM. For the same compound, the IC50 (l(2)mbn cells; [8]) was 1.32 µM, the IC50 (l(2)mbn cells; [9]) was 1.58 µM and the EC50 [3] was 4.07 µM. For the same compound, the Cytotoxicity (MAGI cells) was >10 µM and the “effect on other viruses” value [4] was “without affecting other viruses”.
